Test results: PubChem BioAssay (NCI)
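48-hour exposure; five concentrations; linearly interpolated endpoints. GI50: concentration for 50% inhibition of growth. TGI: concentration producing complete growth inhibition.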

Key:
Test in all cases: DTP human tumour cell line panel, 48 h
[1] = test system: DMS 114 small cell lung
[2] = test system: HOP-18 NSCLC
[3] = test system: M19-MEL melanoma
[4] = test system: RXF-631 renal
[5] = test system: XF 498 CNS
[6] = test system: DMS 273 small cell lung
[7] = test system: BT-549 breast
[8] = test system: MDA-N
[9] = test system: T-47D breast

Row | Compound | TGI [1] | TGI [2] | TGI [3] | TGI [5] | TGI [6] | GI50 [7] | TGI [7] | GI50 [9] | TGI [9] | other results
1 | O=c1[nH]c2cc(Cl)ccc2nc1/C(=N\O)C(O)c1cccc([N+](=O)[O-])c1 (configuration not stated) | > 100 µM | > 100 µM | > 100 µM | > 100 µM | – | – | – | – | – | TGI [4]: > 100 µM
2 | CN1C(=Nc2ccccc2)SC1=Nc1ccccc1 | > 100 µM | > 100 µM | 65.2 µM | 73.3 µM | > 100 µM | – | – | – | – | –
3 | COc1ccc2nc3cccc([N+](=O)[O-])c3c(NCCCCCC(=O)O)c2c1 | – | – | – | – | – | 0.131 µM | 0.422 µM | 0.856 µM | 12 µM | GI50 [8]: 0.0263 µM; TGI [8]: 0.117 µM
4 | COc1cc(NC(C)CCCNC2CN3CCC2CC3)c2ncccc2c1 (configuration not stated) | – | – | – | – | – | 14.8 µM | 29.3 µM | 4.54 µM | 20.5 µM | –
5 | OC(c1ccccc1)(c1ccccc1)c1ccncc1 | > 100 µM | > 100 µM | > 100 µM | > 100 µM | > 100 µM | – | – | – | – | –
6 | COc1cnc2c(c1)C(=O)c1c-2n(CCCn2ccnc2)c(=O)c2cc(F)ccc12 | – | – | – | – | – | 0.0688 µM | 2.86 µM | – | – | –
7 | COc1ccc2n[se]nc2c1 | > 100 µM | – | – | > 100 µM | > 100 µM | – | – | – | – | TGI [4]: > 100 µM
8 | COc1ccc(-c2c[nH]c(C(=O)O)c2-c2cc(OC)c(OC)c(OC)c2)cc1 | – | – | – | – | – | 10.4 µM | > 100 µM | – | – | –
9 | CCN(CC)c1c(C(=O)/C=C/c2ccc(OC)cc2)c(-c2ccccc2)nn(C)c1=O | 32.3 µM | 51.7 µM | > 100 µM | – | 5.13 µM | – | – | – | – | TGI [4]: > 100 µM
10 | Cc1cc(=O)n(-c2ccccc2C)c(C)n1 | > 100 µM | > 100 µM | > 100 µM | – | > 100 µM | – | – | – | – | TGI [4]: > 100 µM
11 | COc1ccc(/C(COc2ccc3c(=O)cc(-c4ccccc4)oc3c2)=N\O)cc1 | – | – | – | – | – | 12.9 µM | 25.8 µM | 21.7 µM | > 45.8 µM | –
12 | COc1cc(/C=C/C(=O)c2cccc(Nc3nc(Nc4ccccc4)nc(Nc4ccccc4)n3)c2)cc(OC)c1OC | – | – | – | – | – | 8.36 µM | > 100 µM | 1.98 µM | > 59 µM | –
13 | Clc1ccc(C2SCc3nc4ccccc4n32)c(Cl)c1 (configuration not stated) | 22.1 µM | 34.4 µM | 28.9 µM | 33.6 µM | – | – | – | – | – | –
14 | CCc1cc(C(=O)OC)cn1C(=N)c1ccc(Cl)cc1 | > 100 µM | > 100 µM | > 100 µM | > 100 µM | > 100 µM | – | – | – | – | –
15 | CN(C)CC/C(=N\Nc1ccc([N+](=O)[O-])cc1)c1ccccc1 | 18 µM | 20.5 µM | – | – | 22.3 µM | – | – | – | – | –
16 | FC(F)(F)c1ccc(Nc2nc(-c3c(C(F)(F)F)nc4ccccn34)cs2)cc1 | – | – | – | – | – | 0.0564 µM | 4.02 µM | 0.0453 µM | 9.07 µM | –
